Laboratory results: the supplement of paper PMC6045584

What follows are test systems tested with COc1cc(CCc2cc(NC(=O)c3ccc(N4CC(C)NC(C)C4)cc3)n[nH]2)cc(OC)c1 [AZD4547] (assay: area under dose-response curve of surviving fraction (unscaled, Aref=0) (surviving fraction x log10(nM)); higher = more resistant). Conditions: exposure time: 5 days; dose range 0.5-1000 nM.
In short: (§1)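 Tumour cell lines in 384-well plates were exposed to eight inhibitor concentrations, from 0.5 to 1000 nM, for five days, and viability was read by CellTiter-Glo luminescence in three screens per line. Signals were normalised to DMSO-only wells, and 3-parameter logistic regression in the drc R package fitted dose-response survival curves to the surviving fractions. Area under the curve is given as the unscaled activity area. That area is taken over log10 dose with Aref = 0.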

Test System	area under dose-response curve
HMLE3 BREAST	2.25
HOSMNG BONE	3.3
HS578T BREAST	3.18
HU09 BONE	2.88
LM7 BONE	3.11
MDAMB157 BREAST	2.38
MDAMB453 BREAST	2.88
MG63 BONE	2.57
NOS1 BONE	2.71
OSHN BONE	3.57
S68 BREAST	3.45
SCC47 HEADNECK	3.44
SCC90 HEADNECK	3.57
SG27 HEADNECK	2.8
SG31 HEADNECK	3.1
SG32 HEADNECK	3.26
SIHA CERVIX	3.02
SJSA1 BONE	3.5
SKBR3 BREAST	3.75
SUM44 BREAST	3.48
SUM149.B1*.S BREAST	3.88
SUM159 BREAST	3.84
ZR751 BREAST	3.05

Each test system was assayed with COc1cc([C@@H]2c3cc4c(cc3[C@@H](O[C@@H]3O[C@@H]5CO[C@@H](C)O[C@H]5[C@H](O)[C@H]3O)[C@H]3COC(=O)[C@H]23)OCO4)cc(OC)c1O [ETOPOSIDE] in the same assay as above. Conditions: exposure time: 5 days; dose range 0.5-1000 nM.
In short: as §1

Test System	area under dose-response curve
93VU HEADNECK	3.41
143B BONE	3.04
ASKA SYNOVIAL	2.38
BT20 BREAST	2.9
BT549 BREAST	2.79
CME SYNOVIAL	2.46
HCC1806 BREAST	2.5
HELA CERVIX	3.04
HMLE3 BREAST	2.53
HS578T BREAST	2.59
HT1080 SOFT TISSUE	2.29
HU09 BONE	2.6
JURKAT HAEMATOPOIETIC AND LYMPHOID TISSUE	2.15
LM7 BONE	3.06
MDAMB157 BREAST	2.68
MDAMB453 BREAST	3.71

Test System	area under dose-response curve
MG63 BONE	3.13
NCIH441 LUNG	2.86
OSHN BONE	3
RDES SOFT TISSUE	2.91
S68 BREAST	2.65
SAOS2 BONE	3.15
SCC47 HEADNECK	3.17
SCC90 HEADNECK	3.67
SG27 HEADNECK	3.45
SG28 HEADNECK	3.66
SJSA1 BONE	3.13
SKBR3 BREAST	3.1
SUM44 BREAST	3.47
SUM149 BREAST	2.41
SUM159 BREAST	2.91
VP229 BREAST	3.78

These test systems were tested with Cc1nc(Nc2n[nH]c3c2CN(C(=O)N[C@H](CN(C)C)c2ccccc2)C3(C)C)c2sccc2n1 in the same assay as above. Conditions: exposure time: 5 days; dose range 0.5-1000 nM.
In short: as §1

Test System	area under dose-response curve
93VU HEADNECK	1.18
143B BONE	1.67
A549 LUNG	1.86
ASKA SYNOVIAL	2.66
BT20 BREAST	2.78
BT549 BREAST	1
CME SYNOVIAL	3.07
HCC38 BREAST	1.16
HCC202 BREAST	2.16
HCC1806 BREAST	0.463
HELA CERVIX	2.12
HMLE3 BREAST	0.944
HOSMNG BONE	2.58
HS578T BREAST	1.45
HT1080 SOFT TISSUE	1.07
HU09 BONE	1.37
JURKAT HAEMATOPOIETIC AND LYMPHOID TISSUE	0.653
LM7 BONE	1.39
MDAMB157 BREAST	1.55
MDAMB453 BREAST	1.76
MG63 BONE	1.34
NCIH441 LUNG	1.92
NOS1 BONE	1.98

Test System	area under dose-response curve
OSHN BONE	1.67
RDES SOFT TISSUE	2.66
S68 BREAST	1.4
SAOS2 BONE	1.41
SCC36 HEADNECK	0.887
SCC47 HEADNECK	1.99
SCC90 HEADNECK	1.7
SG27 HEADNECK	1.72
SG28 HEADNECK	2.12
SG31 HEADNECK	2.15
SG32 HEADNECK	1.04
SIHA CERVIX	1.55
SJSA1 BONE	1.92
SKBR3 BREAST	1.62
SUM44 BREAST	3.07
SUM149 BREAST	1.13
SUM149.B1*.S BREAST	1.97
SUM159 BREAST	2.39
VCAP PROSTATE	1.29
VP229 BREAST	1.92
YAMATO SYNOVIAL	2.79
ZR751 BREAST	1.83

What follows are test systems tested with NC1(c2ccc(-c3nc4ccn5c(=O)[nH]nc5c4cc3-c3ccccc3)cc2)CCC1 [MK2206] in the same assay as above. Conditions: exposure time: 5 days; dose range 0.5-1000 nM.
In short: as §1

Test System	area under dose-response curve
A549 LUNG	3.54
ASKA SYNOVIAL	2.71
BT20 BREAST	3.76
BT549 BREAST	2.87
CME SYNOVIAL	4.03
HCC38 BREAST	4.11
HELA CERVIX	3.72
HMLE3 BREAST	2.97
HMT3552 BREAST	3.05
HOSMNG BONE	2.72
HS578T BREAST	2.94
HT1080 SOFT TISSUE	3.42
HU09 BONE	2.59
JURKAT HAEMATOPOIETIC AND LYMPHOID TISSUE	2.74
LM7 BONE	2.88
MDAMB453 BREAST	2.65
MG63 BONE	3.13
NCIH441 LUNG	3.53
NOS1 BONE	2.74
